Experimental data from PubChem BioAssay AID248 (DTP/NCI, 2004).
Several values for one entry are separate records, joined by “and”; a condition that tells them apart may be missing. Equal values may be shown once. Toxic doses and inconclusive results are not listed. Cut-off read from the data, not from the text of the source: active = T/C of 150% or more; inactive = T/C below 125%. Square brackets hold non-standard residues; d marks the D form. Peptide text beside a SMILES is read from it. * marks the point of attachment. ξ: configuration not given here. Cbz = O=C(OCc1ccccc1)*; ξI = CCC(C)C(N)C(=O)O

System: L1210 leukemia ip in BDF1 mice, survival T/C
Experiment: NCI In Vivo Anticancer Drug Screen. Data for tumor model L1210 Leukemia (intraperitoneal) in B6D2F1 (BDF1) mice
Details: endpoint: mean survival time, higher = longer survival
How it was run: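 Value reflects the ratio of survival in compound-treated mice to survival in vehicle-treated controls, with both groups carrying the same transplanted tumor.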

[1] = dose: 100.0 mg/kg/injection, schedule: Q04DX002 (ip), vehicle: Klucel (hydroxypropylcellulose) (HPC)
[2] = dose: 200.0 mg/kg/injection, schedule: Q04DX002 (ip), vehicle: Klucel (hydroxypropylcellulose) (HPC)
[3] = dose: 400.0 mg/kg/injection, schedule: Q04DX002 (ip), vehicle: Klucel (hydroxypropylcellulose) (HPC)
[4] = dose: 100.0 mg/kg/injection, schedule: Q04DX002 (ip), vehicle: saline with Tween-80
[5] = dose: 100.0 mg/kg/injection, schedule: Q01DX001 (ip), vehicle: saline
[6] = dose: 200.0 mg/kg/injection, schedule: Q01DX001 (ip), vehicle: saline
[7] = dose: 400.0 mg/kg/injection, schedule: Q01DX001 (ip), vehicle: saline
[8] = dose: 100.0 mg/kg/injection, schedule: Q01DX009 (ip), vehicle: Klucel (hydroxypropylcellulose) (HPC)
[9] = dose: 100.0 mg/kg/injection, schedule: Q04DX003 (ip), vehicle: saline
[10] = dose: 50.0 mg/kg/injection, schedule: Q01DX009 (ip), vehicle: saline with Tween-80
[11] = dose: 100.0 mg/kg/injection, schedule: Q01DX009 (ip), vehicle: saline with Tween-80
[12] = dose: 200.0 mg/kg/injection, schedule: Q01DX009 (ip), vehicle: saline with Tween-80
[13] = dose: 100.0 mg/kg/injection, schedule: Q04DX003 (ip), vehicle: Klucel (hydroxypropylcellulose) (HPC)
[14] = dose: 200.0 mg/kg/injection, schedule: Q01DX009 (ip), vehicle: Klucel (hydroxypropylcellulose) (HPC)
[15] = dose: 200.0 mg/kg/injection, schedule: Q04DX003 (ip), vehicle: Klucel (hydroxypropylcellulose) (HPC)
[16] = dose: 400.0 mg/kg/injection, schedule: Q04DX003 (ip), vehicle: Klucel (hydroxypropylcellulose) (HPC)
[17] = dose: 100.0 mg/kg/injection, schedule: Q01DX001 (ip), vehicle: carboxymethylcellulose (CMC)
[18] = dose: 200.0 mg/kg/injection, schedule: Q01DX001 (ip), vehicle: carboxymethylcellulose (CMC)
[19] = dose: 400.0 mg/kg/injection, schedule: Q01DX001 (ip), vehicle: carboxymethylcellulose (CMC)
[20] = dose: 100.0 mg/kg/injection, schedule: Q04DX003 (ip), vehicle: saline with Tween-80
[21] = dose: 200.0 mg/kg/injection, schedule: Q04DX003 (ip), vehicle: saline with Tween-80

Measured: T/C

CCCCCCC#CC(=O)O
inactive: dose: 100.0 mg/kg/injection, schedule: Q01DX009 (sc), vehicle: olive oil, sesame oil, peanut oil 103 % of control | dose: 100.0 mg/kg/injection, schedule: Q04DX003 (sc), vehicle: olive oil, sesame oil, peanut oil 97 % of control | dose: 200.0 mg/kg/injection, schedule: Q01DX009 (sc), vehicle: olive oil, sesame oil, peanut oil 108 % of control | dose: 200.0 mg/kg/injection, schedule: Q04DX003 (sc), vehicle: olive oil, sesame oil, peanut oil 106 % of control | dose: 400.0 mg/kg/injection, schedule: Q01DX009 (sc), vehicle: olive oil, sesame oil, peanut oil 95 % of control | dose: 400.0 mg/kg/injection, schedule: Q04DX003 (sc), vehicle: olive oil, sesame oil, peanut oil 108 % of control

CC(=O)Nc1ccc(NC(=O)c2ccc(C(=O)Nc3ccc(NC(C)=O)cc3)cc2)cc1
inactive: dose: 100.0 mg/kg/injection, schedule: Q01DX001 (ip), vehicle: other 98 % of control | dose: 200.0 mg/kg/injection, schedule: Q01DX001 (ip), vehicle: other 93 % of control | dose: 400.0 mg/kg/injection, schedule: Q01DX001 (ip), vehicle: other 96 % of control

COc1cc(C(=O)NCc2cccs2)cc(OC)c1OC
inactive: [1] 102 % of control | [2] 94 % of control | [3] 94 % of control

CC1(C)[C@@H]2CC[C@@]1(CS(=O)(=O)O)C(=O)C2
inactive: dose: 100.0 mg/kg/injection, schedule: Q04DX002 (ip), vehicle: other 95 % of control | dose: 200.0 mg/kg/injection, schedule: Q04DX002 (ip), vehicle: other 92 % of control

C=C(C)CC(N)Cc1ccccc1 (stereo not drawn)
inactive: dose: 50.0 mg/kg/injection, schedule: Q04DX002 (ip), vehicle: saline with Tween-80 89 % of control | [4] 95 % of control and 103 % of control

CCCCc1[nH]ccc2c(C)c3nc4ccccc4c3cc12
inactive: dose: 50.0 mg/kg/injection, schedule: Q01DX001 (ip), vehicle: saline 96 % of control | [5] 97 % of control | [6] 96 % of control | [7] 97 % of control

c1ccc([P+](Cc2nc3ccccc3[nH]2)(c2ccccc2)c2ccccc2)cc1
inactive: dose: 25.0 mg/kg/injection, schedule: Q01DX009 (ip), vehicle: saline 92 % of control | dose: 25.0 mg/kg/injection, schedule: Q04DX003 (ip), vehicle: saline 97 % of control | dose: 50.0 mg/kg/injection, schedule: Q01DX009 (ip), vehicle: Klucel (hydroxypropylcellulose) (HPC) 102 % of control | dose: 50.0 mg/kg/injection, schedule: Q04DX003 (ip), vehicle: saline 92 % of control | [8] 100 % of control | [9] 94 % of control

CCOc1ccc(NC(=O)OCCN2CCN(CCc3ccccc3)C(C)C2)cc1 (stereo not drawn)
inactive: [5] 98 % of control | [6] 95 % of control

O=C(/C=C/c1ccccc1)c1ccc([N+](=O)[O-])cc1
inactive: [1] 94 % of control | [2] 94 % of control | [3] 108 % of control

CC12CCCCC1=CC(OC(=O)c1ccc([N+](=O)[O-])cc1)CC2 (stereo not drawn)
inactive: [10] 94 % of control | [11] 98 % of control | [12] 94 % of control

CC1(C)N=C(c2ccccc2)C(c2ccccc2)=N1
inactive: [8] 105 % of control | [13] 108 % of control | [14] 98 % of control | [15] 97 % of control | [16] 115 % of control

O=C1C=CC(=O)N1c1ccnc(N2C(=O)C=CC2=O)c1
inactive: [17] 86 % of control | [18] 97 % of control | [19] 105 % of control

CCC(C)C(NC(=O)CNC(=O)CNC(=O)OCc1ccccc1)C(=O)OC (stereo not drawn) (Cbz-Gly-Gly-[ξI]-OMe)
inactive: [13] 98 % of control | [15] 96 % of control | [16] 98 % of control

CC(NC(=O)OCc1ccccc1)C(=O)ON1C(=O)CCC1=O (stereo not drawn)
inactive: [5] 97 % of control | dose: 100.0 mg/kg/injection, schedule: Q01DX009 (ip), vehicle: saline 95 % of control | [9] 96 % of control | [6] 102 % of control | dose: 200.0 mg/kg/injection, schedule: Q01DX009 (ip), vehicle: saline 93 % of control | dose: 200.0 mg/kg/injection, schedule: Q04DX003 (ip), vehicle: saline 94 % of control | [7] 97 % of control | dose: 400.0 mg/kg/injection, schedule: Q01DX009 (ip), vehicle: saline 88 % of control | dose: 400.0 mg/kg/injection, schedule: Q04DX003 (ip), vehicle: saline 96 % of control

CCCC(C)(O)C#CC(C)(O)CCC (stereo not drawn)
inactive: [10] 97 % of control | [11] 95 % of control | [20] 100 % of control | [12] 97 % of control | [21] 95 % of control

ClCCOCCOCCOCCCl
inactive: dose: 75.0 mg/kg/injection, schedule: Q01DX009 (ip), vehicle: saline with Tween-80 97 % of control | [20] 97 % of control | dose: 150.0 mg/kg/injection, schedule: Q01DX009 (ip), vehicle: saline with Tween-80 93 % of control | [21] 106 % of control | dose: 300.0 mg/kg/injection, schedule: Q01DX009 (ip), vehicle: saline with Tween-80 93 % of control | dose: 400.0 mg/kg/injection, schedule: Q04DX003 (ip), vehicle: saline with Tween-80 102 % of control

CC1([N+](=O)[O-])COP(=O)(NCCCN2CCOCC2)OC1 (stereo not drawn)
inactive: [17] 97 % of control | [18] 97 % of control | [19] 97 % of control

O=C(c1ccc(O)cc1)c1c[nH]c2c(O)ccc(O)c12
inactive: dose: 25.0 mg/kg/injection, schedule: Q04DX002 (ip), vehicle: saline + alcohol 98 % of control | dose: 50.0 mg/kg/injection, schedule: Q04DX002 (ip), vehicle: saline + alcohol 91 % of control

N#CCc1cc2c(cc1[N+](=O)[O-])OCO2
inactive: [5] 97 % of control | [6] 87 % of control | [7] 97 % of control

Cn1c(=O)c2c(nc(NCC[N+](C)(C)C)n2C)n(C)c1=O
inactive: dose: 15.0 mg/kg/injection, schedule: Q01DX001 (ip), vehicle: saline 92 % of control | dose: 30.0 mg/kg/injection, schedule: Q01DX001 (ip), vehicle: saline 97 % of control

COc1ccc(C(=O)c2ccccc2)c(OC(=O)Nc2ccc(Cl)cc2)c1
inactive: [8] 109 % of control | [14] 105 % of control | dose: 400.0 mg/kg/injection, schedule: Q01DX009 (ip), vehicle: Klucel (hydroxypropylcellulose) (HPC) 100 % of control

Cc1ncc(CO)c(Nc2ccccc2Cl)n1
inactive: dose: 12.5 mg/kg/injection, schedule: Q04DX003 (ip), vehicle: Klucel (hydroxypropylcellulose) (HPC) 88 % of control | dose: 25.0 mg/kg/injection, schedule: Q04DX003 (ip), vehicle: Klucel (hydroxypropylcellulose) (HPC) 102 % of control | dose: 50.0 mg/kg/injection, schedule: Q04DX003 (ip), vehicle: Klucel (hydroxypropylcellulose) (HPC) 98 % of control

COc1ccc(Cl)cc1NC(=O)Nc1cc(C)ccc1N=Nc1ccc(C)cc1
inactive: dose: 100.0 mg/kg/injection, schedule: Q01DX001 (ip), vehicle: saline with Tween-80 96 % of control and 91 % of control | [11] 88 % of control | [4] 87 % of control | dose: 200.0 mg/kg/injection, schedule: Q01DX001 (ip), vehicle: saline with Tween-80 96 % of control | [12] 94 % of control and 91 % of control | dose: 200.0 mg/kg/injection, schedule: Q04DX002 (ip), vehicle: saline with Tween-80 92 % of control | dose: 400.0 mg/kg/injection, schedule: Q01DX001 (ip), vehicle: saline with Tween-80 96 % of control and 88 % of control | dose: 400.0 mg/kg/injection, schedule: Q01DX009 (ip), vehicle: saline with Tween-80 94 % of control | dose: 400.0 mg/kg/injection, schedule: Q04DX002 (ip), vehicle: saline with Tween-80 92 % of control

Nc1ccccc1Sc1ccc(Br)cc1[N+](=O)[O-]
inactive: dose: 37.5 mg/kg/injection, schedule: Q04DX003 (ip), vehicle: saline 98 % of control | dose: 75.0 mg/kg/injection, schedule: Q04DX003 (ip), vehicle: saline 102 % of control | dose: 150.0 mg/kg/injection, schedule: Q04DX003 (ip), vehicle: saline 93 % of control
